The source made the active and inactive calls.
Assays:
[1] = biological target: T1, G-protein coupled receptor 35 (Homo sapiens, UniProt Q9HC97); assay: SAR analysis of Agonists of the GPR35 Receptor using an Image-Based Assay - Set 2. [Related pubchem assays (depositor defined):AID2013, AID2026]; assay type: functional
[2] = biological target: T2, G-protein coupled receptor 55 (Homo sapiens, UniProt Q9Y2T6); assay: inhibition of LPI-stimulated GPR55 beta-arrestin translocation – imaging, U2OS, beta-arrestin-GFP, LPI agonist, primary screen (AID 2013); assay type: functional;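 also: antagonist potency measured as reduced agonist-driven arrestin aggregation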
T2 sequence (Q9Y2T6 whole entry): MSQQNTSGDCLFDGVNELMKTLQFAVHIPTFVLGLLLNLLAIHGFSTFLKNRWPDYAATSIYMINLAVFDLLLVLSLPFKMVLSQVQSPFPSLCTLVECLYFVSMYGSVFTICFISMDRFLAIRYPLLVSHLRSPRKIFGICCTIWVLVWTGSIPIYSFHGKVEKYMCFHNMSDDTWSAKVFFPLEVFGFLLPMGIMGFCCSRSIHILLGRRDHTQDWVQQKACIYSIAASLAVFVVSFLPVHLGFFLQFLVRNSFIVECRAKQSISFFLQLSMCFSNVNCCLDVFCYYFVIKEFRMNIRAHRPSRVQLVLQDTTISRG

Cannabinoid receptor 2 [3] = biological target: T3, Cannabinoid receptor 2 (Homo sapiens, UniProt P34972); assay: SAR analysis of agonists of the Cannabinoid Receptor 2 using an Image-Based Assay. [Related pubchem assays (depositor defined):AID2013, AID2026]; assay type: functional
T3 sequence (P34972 whole entry): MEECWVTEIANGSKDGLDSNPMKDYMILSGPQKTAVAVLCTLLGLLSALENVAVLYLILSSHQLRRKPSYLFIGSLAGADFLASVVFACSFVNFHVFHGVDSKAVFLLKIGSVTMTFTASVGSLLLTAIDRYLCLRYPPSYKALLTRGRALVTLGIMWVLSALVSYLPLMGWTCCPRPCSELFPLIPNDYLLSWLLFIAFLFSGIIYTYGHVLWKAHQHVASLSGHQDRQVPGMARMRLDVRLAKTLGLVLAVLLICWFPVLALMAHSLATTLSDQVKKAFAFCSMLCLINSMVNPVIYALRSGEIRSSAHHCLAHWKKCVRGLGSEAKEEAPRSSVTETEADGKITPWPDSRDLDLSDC

Streptokinase A = biological target: T4, Streptokinase A (Streptococcus pyogenes serotype M1, UniProt P10520); assay: viability-normalized secreted streptokinase activity reduction – plasminogen activation absorbance, OD405, dose response (AID 1914); assay type: functional, Streptococcus pyogenes M1 GAS;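 also: secreted streptokinase activity via plasminogen activation per viability signal from cell pellet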
T4 sequence (P10520 whole entry): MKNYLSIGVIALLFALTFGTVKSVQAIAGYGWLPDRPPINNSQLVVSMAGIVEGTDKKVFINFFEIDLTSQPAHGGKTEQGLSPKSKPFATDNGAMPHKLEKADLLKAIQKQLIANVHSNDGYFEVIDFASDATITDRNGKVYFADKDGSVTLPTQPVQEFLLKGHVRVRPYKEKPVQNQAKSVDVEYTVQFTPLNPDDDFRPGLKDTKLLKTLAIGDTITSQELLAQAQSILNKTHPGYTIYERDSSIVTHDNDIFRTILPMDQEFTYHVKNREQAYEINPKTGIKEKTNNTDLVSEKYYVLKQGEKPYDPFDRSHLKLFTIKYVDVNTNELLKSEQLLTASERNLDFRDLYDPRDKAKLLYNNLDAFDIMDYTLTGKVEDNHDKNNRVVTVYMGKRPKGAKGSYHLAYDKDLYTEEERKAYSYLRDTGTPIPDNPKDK

Cannabinoid receptor 1 [4] = biological target: T5, Cannabinoid receptor 1 (Homo sapiens, UniProt P21554); assay: SAR analysis of antagonists of the Cannabinoid Receptor 1 using an Image-Based Assay - Set 2. [Related pubchem assays (depositor defined):AID2013, AID2026]; assay type: functional
T5 sequence (P21554 whole entry): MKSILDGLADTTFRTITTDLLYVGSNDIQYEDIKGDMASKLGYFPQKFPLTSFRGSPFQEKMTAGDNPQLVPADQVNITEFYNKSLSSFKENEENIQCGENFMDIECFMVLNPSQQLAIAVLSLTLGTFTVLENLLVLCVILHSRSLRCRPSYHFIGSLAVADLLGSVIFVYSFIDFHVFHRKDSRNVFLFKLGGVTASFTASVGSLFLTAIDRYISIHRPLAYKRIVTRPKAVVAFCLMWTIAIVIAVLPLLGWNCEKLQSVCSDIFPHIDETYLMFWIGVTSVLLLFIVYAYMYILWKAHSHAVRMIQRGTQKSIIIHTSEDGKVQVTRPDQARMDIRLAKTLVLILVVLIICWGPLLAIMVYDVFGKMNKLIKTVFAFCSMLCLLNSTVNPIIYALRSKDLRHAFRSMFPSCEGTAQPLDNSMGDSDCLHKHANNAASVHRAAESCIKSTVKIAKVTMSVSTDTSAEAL

[5] = tested on: Streptococcus sp. 'group A'; assay: Streptococcus pyogenes SK(-)GAS viability under kanamycin – luminescence, BacTiterGlo, confirmation, counter-screen for streptokinase expression inhibitor project, dose response (AID 1900); assay type: functional, organism-based
Cannabinoid receptor 2 [6] = biological target: T3, Cannabinoid receptor 2; assay: SAR analysis of antagonists of the Cannabinoid Receptor 2 using an Image-Based Assay. [Related pubchem assays (depositor defined):AID2013, AID2026]; assay type: functional
[7] = biological target: T2, G-protein coupled receptor 55; assay: blockade of LPI-induced GPR55 arrestin translocation – imaging, U2OS, beta-arrestin-GFP, LPI agonist, set 2, SAR follow-up (AID 2820); assay type: functional
[8] = biological target: T1, G-protein coupled receptor 35; assay: SAR analysis of Antagonists of the GPR35 Receptor using an Image-Based Assay - Set 3. [Related pubchem assays (depositor defined):AID2013, AID2026]; assay type: functional
Cannabinoid receptor 1 [9] = biological target: T5, Cannabinoid receptor 1; assay: SAR analysis of agonists of the Cannabinoid Receptor 1 using an Image-Based Assay - Set 2. [Related pubchem assays (depositor defined):AID2013, AID2026]; assay type: functional
Streptococcus = assay: GAS UMAA2166 growth inhibition – luminescence, BacTiterGlo, counter-screen for streptokinase expression inhibitor project, dose response (AID 1915); assay type: functional, organism-based;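 also: potency for reduction of bacterial viability or growth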
[10] = biological target: T6, Tyrosine-protein phosphatase non-receptor type 22 (Homo sapiens, UniProt Q9Y2R2); assay: SAR LYP1 Fluorescent Assay using OMFP substrate for In Vitro dose response studies - Set 3. [Related pubchem assays (depositor defined):AID1779, AID1784, AID2140, AID2686]; assay type: functional
T6 sequence (Q9Y2R2 whole entry): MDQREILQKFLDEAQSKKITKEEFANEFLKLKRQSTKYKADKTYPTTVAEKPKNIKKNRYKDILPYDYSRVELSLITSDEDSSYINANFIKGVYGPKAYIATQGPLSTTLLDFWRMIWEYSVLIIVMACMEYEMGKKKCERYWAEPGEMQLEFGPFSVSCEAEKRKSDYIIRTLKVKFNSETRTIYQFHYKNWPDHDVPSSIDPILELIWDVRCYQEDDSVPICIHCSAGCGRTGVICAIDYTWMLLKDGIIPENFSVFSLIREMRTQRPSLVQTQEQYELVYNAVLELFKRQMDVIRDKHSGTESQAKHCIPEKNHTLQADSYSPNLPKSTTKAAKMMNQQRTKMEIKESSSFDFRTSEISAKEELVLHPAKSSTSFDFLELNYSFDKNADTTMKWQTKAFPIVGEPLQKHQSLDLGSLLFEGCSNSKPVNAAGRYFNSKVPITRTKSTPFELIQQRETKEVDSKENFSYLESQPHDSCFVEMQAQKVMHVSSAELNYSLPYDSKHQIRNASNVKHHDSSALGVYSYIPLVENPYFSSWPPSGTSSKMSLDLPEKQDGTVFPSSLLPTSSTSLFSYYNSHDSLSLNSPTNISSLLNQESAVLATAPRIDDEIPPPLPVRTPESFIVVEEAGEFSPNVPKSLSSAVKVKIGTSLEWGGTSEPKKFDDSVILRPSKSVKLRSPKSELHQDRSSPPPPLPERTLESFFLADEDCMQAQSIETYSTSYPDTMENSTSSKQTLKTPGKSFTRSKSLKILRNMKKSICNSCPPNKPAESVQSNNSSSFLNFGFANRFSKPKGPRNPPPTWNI

[11] = biological target: T6, Tyrosine-protein phosphatase non-receptor type 22; assay: PubChem AID 2135
[12] = biological target: Tyrosine-protein phosphatase non-receptor type 12 (Homo sapiens, UniProt Q05209); assay: SAR Selectivity Analysis of small molecule inhibitors of PEST using pCAP in a fluorescence assay. [Related pubchem assays (depositor defined):AID1779, AID1784, AID2135]; assay type: functional
Sequence of Tyrosine-protein phosphatase non-receptor type 12 (Q05209 whole entry): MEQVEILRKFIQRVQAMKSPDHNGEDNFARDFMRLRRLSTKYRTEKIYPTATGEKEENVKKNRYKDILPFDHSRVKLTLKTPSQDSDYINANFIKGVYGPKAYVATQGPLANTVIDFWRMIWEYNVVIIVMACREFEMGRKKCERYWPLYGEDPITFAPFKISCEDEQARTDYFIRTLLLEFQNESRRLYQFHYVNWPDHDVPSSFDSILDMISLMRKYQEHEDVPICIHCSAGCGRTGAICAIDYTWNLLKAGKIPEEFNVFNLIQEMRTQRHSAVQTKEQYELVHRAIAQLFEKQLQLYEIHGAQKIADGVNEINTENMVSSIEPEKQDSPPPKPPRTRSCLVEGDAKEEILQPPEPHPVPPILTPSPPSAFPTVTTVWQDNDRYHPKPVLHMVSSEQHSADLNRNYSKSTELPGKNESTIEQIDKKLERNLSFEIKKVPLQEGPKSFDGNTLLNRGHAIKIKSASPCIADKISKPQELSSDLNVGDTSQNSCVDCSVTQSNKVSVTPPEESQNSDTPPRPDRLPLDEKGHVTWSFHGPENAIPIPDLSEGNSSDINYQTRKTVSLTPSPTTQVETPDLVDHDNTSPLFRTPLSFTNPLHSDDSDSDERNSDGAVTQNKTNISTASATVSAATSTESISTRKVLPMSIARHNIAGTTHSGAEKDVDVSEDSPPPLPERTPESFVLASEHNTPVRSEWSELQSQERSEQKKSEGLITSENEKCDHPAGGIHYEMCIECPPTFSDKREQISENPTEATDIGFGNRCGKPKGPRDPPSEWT

[13] = biological target: T7, Tyrosine-protein phosphatase non-receptor type 7 (Homo sapiens, UniProt P35236); assay: inhibition of hematopoietic tyrosine phosphatase HePTP – biochemical, set 2, SAR follow-up (AID 449736); assay type: functional
T7 sequence (P35236 whole entry): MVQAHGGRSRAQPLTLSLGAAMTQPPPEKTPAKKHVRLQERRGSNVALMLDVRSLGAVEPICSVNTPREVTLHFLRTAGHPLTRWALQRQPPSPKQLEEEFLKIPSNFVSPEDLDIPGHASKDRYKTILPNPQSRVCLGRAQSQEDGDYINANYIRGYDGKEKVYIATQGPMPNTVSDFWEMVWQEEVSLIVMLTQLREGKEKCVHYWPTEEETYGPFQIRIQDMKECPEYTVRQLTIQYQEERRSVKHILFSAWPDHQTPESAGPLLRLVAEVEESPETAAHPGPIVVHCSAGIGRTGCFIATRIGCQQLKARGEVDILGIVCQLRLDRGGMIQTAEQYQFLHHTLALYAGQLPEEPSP

[14] = biological target: T6, Tyrosine-protein phosphatase non-receptor type 22; assay: SAR LYP1 Fluorescent Assay using OMFP substrate for In Vitro dose response studies - Set 2. [Related pubchem assays (depositor defined):AID1779, AID1784, AID2140, AID449726, AID488869]; assay type: functional
[15] = biological target: T6, Tyrosine-protein phosphatase non-receptor type 22; assay: inhibition of lymphoid tyrosine phosphatase LYP – biochemical, pCAP fluorogenic substrate, fluorescence, set 3, SAR follow-up (AID 449727); assay type: functional
[16] = biological target: T6, Tyrosine-protein phosphatase non-receptor type 22; assay: SAR LYP1 Fluorescent Assay using pCAP substrate for In Vitro dose response studies - Set 2. [Related pubchem assays (depositor defined):AID1779, AID1784, AID2135, AID449727]; assay type: functional

T1 sequence (Q9HC97 whole entry): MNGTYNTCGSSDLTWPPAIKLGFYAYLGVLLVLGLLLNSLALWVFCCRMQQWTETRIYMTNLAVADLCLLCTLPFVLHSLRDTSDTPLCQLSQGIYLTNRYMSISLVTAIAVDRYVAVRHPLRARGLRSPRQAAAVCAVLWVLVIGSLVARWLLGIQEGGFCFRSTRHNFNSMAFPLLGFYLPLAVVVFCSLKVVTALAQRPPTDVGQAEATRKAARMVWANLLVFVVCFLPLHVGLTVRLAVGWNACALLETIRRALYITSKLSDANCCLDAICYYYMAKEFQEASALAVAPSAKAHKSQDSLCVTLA

Structure (SMILES) | EC50 [1] | IC50 [2] | EC50 (Cannabinoid receptor 2 [3]) | EC50 (Streptokinase A) | IC50 (Cannabinoid receptor 1 [4]) | EC50 [5] | IC50 (Cannabinoid receptor 2 [6]) | IC50 [7] | IC50 [8] | EC50 (Cannabinoid receptor 1 [9]) | EC50 (Streptococcus) | IC50 [10] | IC50 [11] | IC50 [12] | IC50 [13] | IC50 [14] | IC50 [15] | IC50 [16]
Cc1ccc(-n2cc3c(-c4cccc(Br)c4)nnc(C)c3n2)cc1 | > 32 µM (inactive) | 2.21 µM (active) | > 32 µM (inactive) | 94.1 µM (active) | 2.94 µM (active) | 7.37 µM (active) | 23.8 µM (inactive) | 1.24 µM (active) | > 32 µM (inactive) | > 32 µM (inactive) | 46.9 µM (active) |  |  |  |  |  |  | 
N#C/C(=C/c1ccc(OCc2ccc(F)cc2)c(Br)c1)c1ccc(C(=O)O)cc1 |  |  |  |  |  |  |  |  |  |  |  | 37 µM (active) | 4.37 µM (active) | 7.56 µM (active) | 1.36 µM (active) | 13.7 µM (active) | 15.8 µM (active) | 10.8 µM (active)
